This note sets out measurements from patent US20170115269A1, “ACYLCARNITINE COMPOSITION” (SEKISUI MEDICAL CO., LTD., priority 2014, published 2017).

The data set can be described thus: Storage stability of acylcarnitine-stable isotopes in methanol solution at room temperature (Reference Example 1, LC-MS/MS residual rate). The format is physicochemical. As for the experimental part: Acylcarnitine solutions were acquired by dissolving acylcarnitine-stable isotopes into methanol to concentrations listed in Table 3. The acylcarnitine-stable isotopes were measured under the following conditions. The acylcarnitine solutions were measured immediately before storage (prepared at the time of use) and after storage for predetermined periods, and the residual rate (%) was calculated from the acquired peak area ratio using Equation 2 described below.
System: LC-20A series (manufactured by Shimadzu Corporation) and 4000 QTRAP (manufactured by AB Sciex) […]
Mobile phase: mobile phase A, 0.5% (v/v) formic acid aqueous solution mobile phase B, 500 mmol/L ammonium formate aqueous solution: 500 mmol/L ammonium hydroxide (9:1)/methanol=1/9
Analysis time: 70 minutes
LC column: Scherzo SS-C18, 3 μm, 3.0×150 mm (manufactured by Imtact Corporation) Column temperature: 50° C.
Sample injection amount: 5 μL
Ionization mode: ESI (electrospray ionization)
Ion source: Turbo IonSpray
Q1/Q3 is described in Table 3.

The mark [1] stands for this setting: storage period 2 M (two months).

Turning to `[2H]C([2H])([2H])[N+](C)(C)CC(CC(=O)[O-])OC(=O)CC(C)(C)O` (stereo not shown) [^2H3-(3-Hydroxyisovaleryl)-carnitine], the “Res. Rt (Residual Rate)” value was found to be 99.9% (storage period 1 M (one month)) and 97.9% under setting [1].
On the same counts, the results for `[2H]C([2H])([2H])[N+](C)(C)CC(CC(=O)[O-])OC(=O)CCC` (stereo not shown) [^2H3-Butyrylcarnitine] are 101.7% and 63.8%.
As to `[2H]C([2H])([2H])[N+](C)(C)CC(CC(=O)[O-])OC(=O)CCCCCCCCCCC` (stereo not shown) [^2H3-Dodecanoylcarnitine], the “Res. Rt (Residual Rate)” value by setting is: (storage period 1 M (one month)) 103.1%; under setting [1], 84.9%.
On the same counts, the results for `[2H]C([2H])([2H])[N+](C)(C)CC(CC(=O)[O-])OC(=O)CCCC(=O)O` (stereo not shown) [^2H3-Glutarylcarnitine] are 99.3% and 63.3%.
For `[2H]C([2H])([2H])[N+](C)(C)CC(CC(=O)[O-])OC(=O)CCCCCCCCCCCCCCCCC` (stereo not shown) [^2H3-Octadecanoylcarnitine], the “Res. Rt (Residual Rate)” value is, setting by setting: (storage period 1 M (one month)) 103.7%; under setting [1], 69.6%.
On the same counts, the results for `[2H]C([2H])([2H])[N+](C)(C)CC(CC(=O)[O-])OC(=O)CCCCCCC` (stereo not shown) [^2H3-Octanoylcarnitine] are 103.3% and 70.3%.
On the same counts, the results for `[2H]C([2H])([2H])[N+](C)(C)CC(CC(=O)[O-])OC(=O)CCCCCCCCCCCCCCC` (stereo not shown) [^2H3-Palmitoylcarnitine] are 101.2% and 62.6%.
Take `[2H]C([2H])([2H])[N+](C)(C)CC(CC(=O)[O-])OC(=O)CC` (stereo not shown) [^2H3-Propionylcarnitine]: the “Res. Rt (Residual Rate)” value by setting is: (storage period 1 M (one month)) 97.4%; under setting [1], 38.5%.
On the same counts, the results for `[2H]C([2H])([2H])[N+](C[C@H](O)CC(=O)[O-])(C([2H])([2H])[2H])C([2H])([2H])[2H]` [^2H9-Carnitine] are 100.9% and 100.2%.
In the case of `[2H]C([2H])([2H])[N+](CC(CC(=O)[O-])OC(=O)CC(C)C)(C([2H])([2H])[2H])C([2H])([2H])[2H]` (stereo not shown) [^2H9-Isovalerylcarnitine], the “Res. Rt (Residual Rate)” value is listed as 100.3% (storage period 1 M (one month)) and 99.4% under setting [1].
As to `[2H]C([2H])([2H])[N+](CC(CC(=O)[O-])OC(=O)CCCCCCCCCCCCC)(C([2H])([2H])[2H])C([2H])([2H])[2H]` (stereo not shown) [^2H9-Myristoylcarnitine], the “Res. Rt (Residual Rate)” value (storage period 1 M (one month)) came out at 103.9% and the “Res. Rt (Residual Rate)” value under setting [1] is given as 67.8%.
